In US7384961B2, “Saturated and unsaturated heteroarylcycloalkylmethyl amines as anti-depressants” (priority 2002, dated 2008):
Where a name gives a salt, the structure may show the parent alone. Read-outs that look alike come from different tables or passages of the source.

Tests used:
5-HT re-uptake = target: T1, 5-HT re-uptake (Rattus norvegicus, UniProt P31652); assay: Inhibition of 5-HT re-uptake in rat brain synaptosomes (P2 fraction, medulla + pons); type: biochemical; details: for inhibition at 10 µM: 10 μmol/l
T1 construct: synaptosomes are freshly isolated from rat brain areas; from tissue; host or cells: rat brain synaptosomes (P2 fraction), medulla + pons region, male rats
Text: (§1) a) Investigations of the Inhibition of the Re-uptake of 5-HT and NA
(§2) In order to be able to carry out these in vitro studies, synaptosomes are freshly isolated from rat brain areas. […] These vesicular particles are isolated from the hypothalamus for the NA re-uptake and from the medulla +pons region of male rat brains for the 5-HT re-uptake.
(§3) The IC50 values were obtained with the aid of the “Figure P” computer program (version 6.0, Biosoft, Cambridge, England). […] The “Ligand” computer program (version 4, Biosoft, England) was used to obtain KD values.

NA re-uptake = target: T2, NA re-uptake (Rattus norvegicus, UniProt Q63380); assay: Inhibition of NA re-uptake in rat brain synaptosomes (P2 fraction, hypothalamus); type: biochemical; details: for inhibition at 10 µM: 10 μmol/l
T2 construct: synaptosomes are freshly isolated from rat brain areas; from tissue; host or cells: rat brain synaptosomes (P2 fraction), hypothalamus
Text: as §1, §2, §3

mice = assay: Formalin test in mice (analgesic action, chronic pain component); type: in vivo; details: for ED50: Mus musculus, iv, read-out: Inhibition of the nociceptive behaviour versus control, ED50 value
Procedure: b) Investigations of the Analgesic Actions in the Formalin Test in Mice
The formalin test (Dubuisson, D. and Dennis, S. G., 1977, Pain, 4, 161-174) represents a model of acute and chronic pain. The chronic pain component was evaluated in the investigations described here.
A biphase nociceptive reaction which is recorded by observing three behaviour patterns which can be clearly differentiated from one another is induced in freely mobile test animals by a single formalin injection into the dorsal side of a hind paw.
Formalin is administered subcutaneously into the dorsal side of the right hind paw of each animal in a volume of 20 μl and a concentration of 1%.
The specific changes in behaviour which differ from the normal behaviour (score 0), such as raising (score 1) and shaking the paw (score 2) and biting and licking reactions (score 3), are observed and recorded continuously at component intervals of 3 min for up to 60 min after the administration of formalin. The changes in behaviour are weighted in different ways (score 0-3) and a pain rate (PR) is calculated using the following formula: PR=[(T0×0)+(T1×1)+(T2×2)+(T3×3)]/180.
The group size is 10 animals (n=10).
On the basis of the PR calculations, the action of the substance was determined as the change from a control in percent. The ED50 was determined by means of regression analysis.

T2 sequence (Q63380 1-617): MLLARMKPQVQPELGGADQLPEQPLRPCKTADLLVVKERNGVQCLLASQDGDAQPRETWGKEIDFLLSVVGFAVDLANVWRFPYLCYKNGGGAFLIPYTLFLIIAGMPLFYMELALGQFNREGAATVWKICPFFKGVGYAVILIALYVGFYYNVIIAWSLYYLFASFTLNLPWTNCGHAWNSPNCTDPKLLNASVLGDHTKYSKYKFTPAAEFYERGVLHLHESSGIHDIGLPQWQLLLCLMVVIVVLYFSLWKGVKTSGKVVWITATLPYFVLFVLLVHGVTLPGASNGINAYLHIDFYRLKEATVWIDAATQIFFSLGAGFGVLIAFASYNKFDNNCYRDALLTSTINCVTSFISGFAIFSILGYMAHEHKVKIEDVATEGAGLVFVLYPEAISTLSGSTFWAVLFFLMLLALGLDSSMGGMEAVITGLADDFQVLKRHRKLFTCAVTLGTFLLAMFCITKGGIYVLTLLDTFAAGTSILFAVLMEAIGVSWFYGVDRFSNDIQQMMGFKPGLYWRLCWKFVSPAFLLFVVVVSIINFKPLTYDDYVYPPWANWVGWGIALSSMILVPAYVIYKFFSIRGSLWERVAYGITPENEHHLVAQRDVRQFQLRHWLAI
T1 sequence (P31652 whole entry): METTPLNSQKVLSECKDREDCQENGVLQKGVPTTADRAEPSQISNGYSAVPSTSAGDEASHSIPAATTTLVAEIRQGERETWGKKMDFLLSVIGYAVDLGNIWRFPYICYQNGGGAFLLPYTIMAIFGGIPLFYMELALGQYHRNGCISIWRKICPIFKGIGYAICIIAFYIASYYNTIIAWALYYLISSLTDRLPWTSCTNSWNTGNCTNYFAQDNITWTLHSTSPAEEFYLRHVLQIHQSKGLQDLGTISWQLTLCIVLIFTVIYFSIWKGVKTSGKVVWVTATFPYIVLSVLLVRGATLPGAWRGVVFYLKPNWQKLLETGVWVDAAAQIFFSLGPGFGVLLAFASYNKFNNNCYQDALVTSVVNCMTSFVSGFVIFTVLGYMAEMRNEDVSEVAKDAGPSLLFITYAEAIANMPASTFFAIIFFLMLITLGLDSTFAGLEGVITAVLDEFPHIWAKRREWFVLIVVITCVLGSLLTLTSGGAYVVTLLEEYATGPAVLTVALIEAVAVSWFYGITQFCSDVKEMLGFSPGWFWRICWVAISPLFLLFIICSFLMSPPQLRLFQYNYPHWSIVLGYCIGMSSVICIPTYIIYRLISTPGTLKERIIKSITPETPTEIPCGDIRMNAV

Compound	inhibition at 10 µM (5-HT re-uptake)	inhibition at 10 µM (NA re-uptake)	further results
CN(C)C[C@@H]1CCCC[C@@H]1c1cccnc1 (relative stereo) [Example 6, cis-Dimethyl-(2-pyridin-3-yl-cyclohexylmethyl)amine hydrochloride]	94%	25%	–
CN(C)C[C@@H]1CCCC[C@H]1c1cccnc1.Cl (relative stereo) [Example 7, trans-Dimethyl-(2-pyridin-3-yl-cyclohexylmethyl)amine hydrochloride]	95%	22%	ED50 (mice): 2.55 mg/kg
CN(C)C[C@@H]1CCCCC[C@@H]1c1cccnc1 (relative stereo) [Example 26, cis-Dimethyl-(2-pyridin-3-yl-cycloheptylmethyl)-amine hydrochloride]	82%	28%	–
CN(C)C[C@@H]1CCCCC[C@H]1c1cccnc1 (relative stereo) [Example 27, trans-Dimethyl-(2-pyridin-3-yl-cycloheptylmethyl)-amine hydrochloride]	88%	54%	–
CN(C)C[C@@H]1CSCC[C@@]1(O)c1cccnc1.Cl (relative stereo) [Example 50, cis-3-Dimethylaminomethyl-4-pyridin-3-yl-tetrahydrothiopyran-4-ol hydrochloride]	–	–	Inhibition of the nociceptive behaviour versus control; % inhibition (mice; 21.5 mg/kg i.v., mice): 37.0%; 5-HT re-uptake inhibition (10 μmol/l) (5-HT re-uptake): 54%; NA re-uptake inhibition (10 μmol/l) (NA re-uptake): 29%
COc1cncc([C@@H]2CCCCCC[C@H]2CN(C)C)c1 (relative stereo) [Example 70, trans-[2-(5-Methoxy-pyridin-3-yl)-cyclooctylmethyl]-dimethyl-amine and the corresponding hydrochloride]	–	–	5-HT re-uptake inhibition (10 μmol/l) (5-HT re-uptake): 89%; NA re-uptake inhibition (10 μmol/l) (NA re-uptake): 52%
COc1cncc([C@H]2CCCCCC[C@H]2CN(C)C)c1 (relative stereo) [Example 72, cis-[2-(5-Methoxy-pyridin-3-yl)-cyclooctylmethyl] -dimethyl-amine hydrochloride]	60%	53%	–
CNCC1=C(c2cccnc2)CCCC1.Cl [Example 2, Methyl-(2-pyridin-3-yl-cyclohex-1-enylmethyl)amine hydrochloride]	69%	15%	Inhibition of the nociceptive behaviour versus control; % inhibition (mice; 21.5 mg/kg i.v., mice): 88%
CN(CC1=C(c2cccnc2)CCCC1)Cc1ccccc1.Cl [Example 10, Benzylmethyl-(2-pyridin-3-yl-cyclohex-1-enylmethyl)amine hydrochloride]	–	–	Inhibition of the nociceptive behaviour versus control; % inhibition (mice; 10 mg/kg i.v., mice): 66.3%
CN(C)CC1CCCCCC1(Cl)c1ccc(Cl)nc1 (stereo not drawn) [Example 13, [2-Chloro-2-(6-chloro-pyridin-3-yl)-cycloheptylmethyl]-dimethyl-amine hydrochloride]	38%	75%	–
CN(C)CC1CCCCC1(Cl)c1cccnc1 (stereo not drawn) [Example 14, (2-Chloro-2-pyridin-3-yl-cyclohexylmethyl)-dimethyl-amine hydrochloride]	73%	27%	–
CN(C)CC1CCCCC1(Cl)c1ccc(Cl)nc1 (stereo not drawn) [Example 15, [2-Chloro-2-(6-chloro-pyridin-3-yl)-cyclohexylmethyl]-dimethyl-amine hydrochloride]	51%	53%	–
CN(C)CC1=C(c2cccnc2)CCCCC1.Cl [Example 23, Dimethyl-(2-pyridin-3-yl-cyclohept-1-enylmethyl)-amine hydrochloride]	86%	50%	ED50 (mice): 2.44 mg/kg
CN(C)CC1CCCCC=C1c1cccnc1.Cl (stereo not drawn) [Example 24, Dimethyl-(2-pyridin-3-yl-cyclohept-2-enylmethyl)-amine hydrochloride]	67%	19%	ED50 (mice): 5.4 mg/kg
CN(C)CC1=C(c2cccnc2)CCC1.Cl [Example 28, Dimethyl-(2-pyridin-3-yl-cyclopent-1-enylmethyl)-amine hydrochloride]	83%	29%	Inhibition of the nociceptive behaviour versus control; % inhibition (mice; 10 mg/kg i.v., mice): 92.6%
CN(C)CC1CCC=C1c1cccnc1 (stereo not drawn) [Example 29, Dimethyl-(2-pyridin-3-yl-cyclopent-2-enylmethyl)-amine hydrochloride]	69%	64%	–

Compound	inhibition at 10 µM (5-HT re-uptake)	inhibition at 10 µM (NA re-uptake)	further results
CN(C)CC1CCCC1c1cccnc1.Cl (stereo not drawn) [Example 31, Dimethyl-(2-pyridin-3-yl-cyclopentylmethyl)-amine hydrochloride]	70%	8%	Inhibition of the nociceptive behaviour versus control; % inhibition (mice; 10 mg/kg i.v., mice): 89.7%
CN(C)CC1=C(c2cccnc2)CCCCCC1.Cl [Example 32, Dimethyl-(2-pyridin-3-yl-cyclooct-1-enylmethyl)-amine hydrochloride]	78%	55%	ED50 (mice; mice, formalin test): 2.77 mg/kg
CN(C)CC1CCCCCC=C1c1cccnc1 (stereo not drawn) [Example 33, Dimethyl-(2-pyridin-3-yl-cyclooct-2-enylmethyl)-amine hydrochloride]	74%	50%	–
CN(C)CC1=C(c2ccncc2)CCCCC1 [Example 38, Dimethyl-(2-pyridin-4-yl-cyclohept-1-enylmethyl)-amine hydrochloride]	76%	73%	–
CN(C)CC1CCCCC=C1c1ccc(Cl)nc1 (stereo not drawn) [Example 48, [2-(6-chloro-pyridin-3-yl)-cyclohept-2-enylmethyl]-dimethyl-amine hydrochloride]	81%	82%	–
CN(C)CC1=C(c2ccc(Cl)nc2)CCCC1 [Example 49, [2-(6-Chloro-pyridin-3-yl)-cyclohex-1-enylmethyl]-dimethyl-amine hydrochloride]	55%	67%	–
COc1cncc(C2=C(CN(C)C)CCCC2)c1 [Example 54, [2-(5-Methoxy-pyridin-3-yl)-cyclohex-1-enylmethyl]-dimethyl-amine hydrochloride]	85%	17%	–
COc1cncc(C2=CCCCC2CN(C)C)c1 (stereo not drawn) [Example 55, [2-(5-Methoxy-pyridin-3-yl)-cyclohex-2-enylmethyl]-dimethyl-amine hydrochloride]	67%	34%	–
COc1cncc(C2CCCCCC2CN(C)C)c1 (stereo not drawn) [Example 60, [2-(5-Methoxy-pyridin-3-yl)-cycloheptylmethyl] -dimethyl-amine hydrochloride]	75%	30%	–
COc1cncc(C2CCCCC2CN(C)C)c1 (stereo not drawn) [Example 62, [2-(5-Methoxy-pyridin-3-yl)-cyclohexylmethyl] -dimethyl-amine hydrochloride]	77%	13%	–
CN(C)CC1=C(c2cncc(O)c2)CCCC1 [Example 64, 5-(2-Dimethylaminomethyl-cyclohex-1-enyl)-pyridin-3-ol hydrochloride]	68%	6%	–
CCCN(CCC)CC1=C(c2cccnc2)CCCC1.Cl [Example 65, Dipropyl-(2-pyridin-3-yl-cyclohex-1-enylmethyl)-amine hydrochloride]	54%	-8%	Inhibition of the nociceptive behaviour versus control; % inhibition (mice; 4.64 mg/kg i.v., mice): −39.4%
CN(C)CC1=C(c2ccc(Cl)nc2)CCCC1.Cl [Example 68, [2-(6-Chloro-pyridin-3-yl)-cyclohex-1-enylmethyl]-dimethyl-amine hydrochloride]	–	–	5-HT re-uptake inhibition (10 μmol/l) (5-HT re-uptake; hydrochloride): 67%; NA re-uptake inhibition (10 μmol/l) (NA re-uptake; hydrochloride): 62%
CN(C)CC1CCCCCC=C1c1ccc(Cl)nc1 (stereo not drawn) [Example 71, [2-(6-Chloro-pyridin-3-yl)-cyclooct-2-enylmethyl] -dimethyl-amine hydrochloride]	74%	77%	–
COc1cncc(C2=CCCCCCC2CN(C)C)c1 (stereo not drawn) [Example 73, [2-(5-Methoxy-pyridin-3-yl)-cyclooct-2-enylmethyl] -dimethyl-amine hydrochloride]	89%	55%	–
COc1cncc(C2=C(CN(C)C)CCCCCC2)c1 [Example 74, [2-(5-Methoxy-pyridin-3-yl)-cyclooct-1-enylmethyl] -dimethyl-amine hydrochloride]	72%	56%	–
